Measurements as given in patent publication US20150141411A1, “SUBSTITUTED 3,4-DIHYDRO-2H-PYRIDO[1,2-A]PYRAZINE-1,6-DIONE DERIVATIVES USEFUL FOR THE TREATMENT OF (INTER ALIA) ALZHEIMER'S DISEASE” (Janssen Pharmaceuticals, Inc., priority 2012, published 2015).
pIC50: −log10 of the molar value.

How the values were obtained:
[1] = target: T1, γ-secretase (Homo sapiens, UniProt P49768); assay: Screening for γ-secretase-modulating activity: Aβ42 in supernatant of SKNBE2 cells carrying hAPP 695 wild type (Alphalisa); type: cell-based; conditions: SKNBE2 human neuroblastoma cells carrying hAPP 695 wild type, overnight incubation, Aβ42 in cell supernatant
T1 construct: endogenous in cells; host or cells: SKNBE2 human neuroblastoma cells (carrying hAPP 695 wild type as substrate)
How it was run: (§1)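 SKNBE2 neuroblastoma cells expressing wild-type hAPP 695 plated at 10^4 cells/well in Ultraculture with test compound, incubated overnight at 37° C. Aβ42 (C-terminal/N-terminal antibody pair) and Aβtotal (N-terminal/4G8 pair) in supernatant quantified by AlphaLISA. IC50 from 4-parameter fit of percent of compound-free control.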

[2] = target: T1, γ-secretase; assay: Screening for γ-secretase-modulating activity: Aβtotal in supernatant of SKNBE2 cells carrying hAPP 695 wild type (Alphalisa); type: cell-based; conditions: SKNBE2 human neuroblastoma cells carrying hAPP 695 wild type, overnight incubation, Aβtotal in cell supernatant
How it was run: as §1

pIC50 [1]	pIC50 [2]	melting point [°C]	SMILES
< 5.00	< 5.00	248.6	Cc1cn(-c2ccc3n(c2=O)CCN(c2cccc(C(F)(F)F)c2C)C3=O)cn1 [compound 57]
6.08	< 5.00	199.4	Cc1cn(-c2ccc3n(c2=O)CCN(Cc2cccc(C(F)(F)F)c2C)C3=O)cn1 [compound 58]
6.25	< 5.00	140.2	COc1ccc(CN2C(=O)c3ccc(-n4cnc(C)c4)c(=O)n3C[C@H]2C)cc1C(F)(F)F [compound 67]
6.72	< 5.00	132.4	COc1cc(CN2C(=O)c3ccc(-n4cnc(C)c4)c(=O)n3C[C@H]2C)cc(C(F)(F)F)c1 [compound 68]
5.99	< 5.00	177	COc1ccc(CN2CCn3c(ccc(-n4cnc(C)c4)c3=O)C2=O)cc1C(F)(F)F [compound 69]
6.24	< 5.00	108.5	Cc1cn(-c2ccc3n(c2=O)C[C@@H](C)N(Cc2cc(C(F)(F)F)ccc2F)C3=O)cn1 [compound 70]
5.59	< 5.00	227.4	Cc1cn(-c2ccc3n(c2=O)CCN(Cc2ccc(F)cc2C)C3=O)cn1 [compound 73]
6.42	< 5.00	163.4	Cc1cn(-c2ccc3n(c2=O)CCN(Cc2cccc(OC(F)(F)F)c2)C3=O)cn1 [compound 74]
6.01	< 5.00	214.1	Cc1cn(-c2ccc3n(c2=O)CCN(Cc2ccc(OC(F)(F)F)cc2C)C3=O)cn1 [compound 75]
6.64	< 5.00	108.2	Cc1cn(-c2ccc3n(c2=O)C[C@@H](C)N(Cc2cccc(N4CCCCC4)c2)C3=O)cn1 [compound 84]
5.73	< 5.00	136.5	Cc1cn(-c2cc(Cl)c3n(c2=O)CCN(Cc2cccc(-c4ccccc4)c2)C3=O)cn1 [compound 88]
< 5.00	< 5.00	146.5	Cc1cncn1-c1ccc2n(c1=O)CCN(Cc1ccccc1)C2=O [compound 89]
7.15	< 5.00	138 to 143	Cc1cn(-c2ccc3n(c2=O)CCN(Cc2cccc(-c4ccc(F)cc4C(F)(F)F)c2)C3=O)cn1 [compound 90]
5.17	< 5.00	192.2	Cc1cn(-c2ccc3n(c2=O)CCN(Cc2ccc4c(c2)OCCCO4)C3=O)cn1 [compound 93]
5.12	< 5.00	181.6	Cc1cn(-c2ccc3n(c2=O)CCN(Cc2cccc(N4CCOCC4)c2)C3=O)cn1 [compound 95]
6.12	< 5.00	163.6	Cc1cn(-c2ccc3n(c2=O)CCN(Cc2cccc(N4CCCCC4)c2)C3=O)cn1 [compound 96]
6.36	< 5.00	207.8	Cc1cn(-c2ccc3n(c2=O)CCN(Cc2cccc(N4CCCCC4)c2C)C3=O)cn1 [compound 97]
6.12	< 5.00	167.4	Cc1cn(-c2ccc3n(c2=O)CCN(Cc2ccccc2N2CCCCC2)C3=O)cn1 [compound 100]
6.13	< 5.00	121.5	Cc1cn(-c2ccc3n(c2=O)CCN(Cc2cccc(C4CC4)c2)C3=O)cn1 [compound 101]
< 5.00	< 5.00	222.2	Cc1cn(-c2ccc3n(c2=O)CCN(c2ccccc2C)C3=O)cn1 [compound 102]

pIC50 [1]	pIC50 [2]	melting point [°C]	SMILES
5.61	< 5.00	176.8	Cc1cn(-c2ccc3n(c2=O)CCN(CCC2COc4ccccc4O2)C3=O)cn1 (stereo not drawn) [compound 103]
5.55	< 5.00	253.5	Cc1cn(-c2ccc3n(c2=O)CCN(C2CCc4c2cccc4C(F)(F)F)C3=O)cn1 (stereo not drawn) [compound 105]
6.14	< 5.00	189.4	Cc1cn(-c2ccc3n(c2=O)CCN(C2CCCc4ccc(C(F)(F)F)cc42)C3=O)cn1 (stereo not drawn) [compound 106]
5.61	< 5.00	257.3	Cc1cn(-c2ccc3n(c2=O)CCN(C2CCCc4c2cccc4C(F)(F)F)C3=O)cn1 (stereo not drawn) [compound 107]
6.40	< 5.00	136.1	Cc1cn(-c2ccc3n(c2=O)C[C@@H](C)N(Cc2ccc4c(c2)OC(F)(F)O4)C3=O)cn1 [compound 113]
6.85	< 5.00	101.4	Cc1cn(-c2ccc3n(c2=O)C[C@@H](C)N(Cc2ccc4scc(Br)c4c2)C3=O)cn1 [compound 115]
< 5.00	< 5.00	151.2	COc1cccc(CN2CCn3c(ccc(-n4cnc(C)n4)c3=O)C2=O)c1 [compound 119]
5.21	< 5.00	194.9	Cc1ncn(-c2ccc3n(c2=O)CCN(Cc2cccc(C(F)(F)F)c2)C3=O)n1 [compound 120]
6.42	< 5.00	173.4	Cc1cn(-c2ccc3n(c2=O)CCCN(Cc2ccc(Cl)c(Cl)c2)C3=O)cn1 [compound 121]
5.63	< 5.00	136.5	Cc1cn(-c2ccc3n(c2=O)C[C@@H](C)N(Cc2ccccc2)C3=O)cn1 [compound 124]
6.70	< 5.00	170.7	Cc1cn(-c2ccc3n(c2=O)C[C@@H](C)N(Cc2cc(Cl)cc(Cl)c2)C3=O)cn1 [compound 131]
6.29	< 5.00	160.9	Cc1ncn(-c2ccc3n(c2=O)CC(C)N(Cc2cc(C(F)(F)F)cc(C(F)(F)F)c2)C3=O)n1 (stereo not drawn) [compound 155]
5.69	5.06	147.7	Cc1cn(-c2c(Br)cc3n(c2=O)C[C@@H](C)N(Cc2cc(C(F)(F)F)cc(C(F)(F)F)c2)C3=O)cn1 [compound 157]
6.72	< 5.00	171.7	Cc1cn(-c2ccc3n(c2=O)CCN(Cc2cc(OC(C)C)cc(C(F)(F)F)c2)C3=O)cn1 [compound 160]
5.85	< 5.00	225.6	Cc1cn(-c2ccc3n(c2=O)CCN(C(C)c2cc(F)cc(C(F)(F)F)c2)C3=O)cn1 (stereo not drawn) [compound 168]
6.60	< 5.00	182.3	Cc1cn(-c2ccc3n(c2=O)CCN(C(C)Cc2cc(C(F)(F)F)cc(C(F)(F)F)c2)C3=O)cn1 (stereo not drawn) [compound 172]
7.70	5.13	187	Cc1cn(-c2ccc3n(c2=O)C[C@@H](C)N(Cc2cn(C)c4cc(F)c(Cl)cc24)C3=O)cn1 [compound 196]
7.70	< 5.00	181	Cc1cn(-c2ccc3n(c2=O)C[C@@H](C)N(Cc2cn(C(C)C)c4cc(Br)ccc24)C3=O)cn1 [compound 200]
7.30	< 5.00	161	Cc1cn(-c2ccc3n(c2=O)C[C@@H](C)N(Cc2cn(C)c4cc(C(F)(F)F)ccc24)C3=O)cn1 [compound 228]
